From US20220095648A1, “USE OF A THRAUSTOCHYTRID BIOMASS FOR MAINTAINING GUT BARRIER FUNCTION” (priority 2019, published 2022)

Key:
[1] = test system: Caco-2 cells; assay: D-glucose total and passive uptake by Caco-2 cells exposed to DON; format: cell-based; conditions: DON 10 μM alone
Text: (§1) In order to test the ability of microalgae to reduce/prevent the effect of DON on nutrient absorption through epithelial cells, Caco-2 cells were exposed to a metabolically active dose of DON, in the absence or presence of Aurantiochytrium mangrovei FCC1325 microalgae (lyophilized microalgae “ML”, or digested lyophilized microalgae “MLD”), at a dose of 1% or 5%. Two main types of nutrients were considered (i.e. glucose and amino acids—more particularly Methionine, Lysine and Threonine), and the following measurements were carried out: • For glucose (D-Glc): passive, active (regulated by the sodium-dependent SGLT-1 transporter) and total (active+passive) absorption • For amino acids (L-Methionine, L-Lysine and L-Threonine): passive, active (regulated by sodium-dependent transport) and total (active+passive) absorption
(§2) Briefly, Caco-2 cells were cultured and seeded onto 12-well inserts, as described in Example 1, and then let to differentiate for 16-21 days post-seeding before being used, with medium changes every two days. When differentiated, Caco-2 cells were incubated or not with DON at 10 μM (apically added), in the absence or presence of 1 or 5% (v:v final dilution, apically added) of microalgae preparation (ML or MLD). Both ML and MLD powders were resuspended initially at 0.8 mg/ml in buffer (fresh culture medium of the microalgae). Caco-2 cells were incubated for 12, 24 or 48 hours before nutrient uptake was measured.
(§3) At the end of the incubation period, inserts were washed twice with PBS++. Inserts were then washed twice with uptake buffer (Ringer Hepes buffer) with or without sodium. Uptake buffer composition was: • Ringer Hepes buffer with sodium (called “+Na+”): 137 mmol/L NaCl, 5.36 mmol/L KCl, 0.4 mmol/L Na2HPO4, 0.8 mmol/L MgCl2, 1.8 mmol/L CaCl2, 20 mmol/L N-2-hydroxyethylpiperazine-N-2-ethanesulfonic acid (HEPES), pH being adjusted to pH 7.4 with NaOH; or • Ringer Hepes buffer without sodium (called “—Na+”): 137 mmol/L Choline chloride (instead of sodium chloride), 5.36 mmol/L KCl, 0.4 mmol/L K2HPO4 (instead of Na2HPO4), 0.8 mmol/L MgCl2, 1.8 mmol/L CaCl2, 20 mmol/L N-2-hydroxyethylpiperazine-N-2-ethanesulfonic acid (HEPES), pH being adjusted to pH 7.4 with KOH.
(§4) After an equilibration period of 15 min at 37° C., uptake assay was initiated by the addition of D-Glc, L-Lysine, L-Methionine or L-Threonine diluted in the appropriate Ringer Hepes buffer (400 μl) and added apically onto Caco-2 inserts (final concentration of 100 μM of D-Glc and 400 μM for amino-acids), the basolateral compartment being filled with 400 μl of buffer. Inserts were kept incubated at 37° C. during the uptake assay. After 15 minutes incubation, 30 μl of media were collected from apical or basolateral compartments and stored at −20° C. until nutrient quantification. Residual concentrations of D-Glc or L-amino acid present in the apical compartments were measured using enzyme-based quantification assay kits (Glucose Colorimetric/Fluorometric Assay Kit, Sigma-Aldrich).
(§5) Uptakes were expressed as: • Total uptake: uptake measured (either measured residual apical concentration or calculated absorbed (intracellular+basolateral) concentration) in Ringer Hepes buffer with Na+corresponding to the activity of sodium-dependent and sodium-independent transporters; • Passive uptake: uptake measured in Ringer Hepes buffer without Na+corresponding to only passive/sodium-independent transporters; • Active uptake: uptake calculated by subtracting passive uptake to total uptake.

[2] = test system: sodium-dependent SGLT-1 transporter; assay: SGLT-1 mediated (active) D-glucose uptake by Caco-2 cells exposed to DON; format: cell-based; conditions: DON 10 μM alone, total minus passive
Text: as §1
as §2, with “Both ML and MLD powders were resuspended initially at 0.8 mg/ml in buffer (fresh culture medium of the microalgae).” left out, “measured. […]” for “measured.”
as §4, with “Inserts were kept incubated at 37° C. during the uptake assay.” left out, “Sigma-Aldrich). […]” for “Sigma-Aldrich).”

[3] = test system: Caco-2 cells; assay: Nutrient uptake by Caco-2 cells exposed to DON (overall conclusion); format: cell-based; conditions: DON at 10 μM
Procedure: In order to test the ability of microalgae to reduce/prevent the effect of DON on nutrient absorption through epithelial cells, Caco-2 cells were exposed to a metabolically active dose of DON, in the absence or presence of Aurantiochytrium mangrovei FCC1325 microalgae (lyophilized microalgae “ML”, or digested lyophilized microalgae “MLD”), at a dose of 1% or 5%. […]
Briefly, Caco-2 cells were cultured and seeded onto 12-well inserts, as described in Example 1, and then let to differentiate for 16-21 days post-seeding before being used, with medium changes every two days. […] Caco-2 cells were incubated for 12, 24 or 48 hours before nutrient uptake was measured. […]
as §4, with “Inserts were kept incubated at 37° C. during the uptake assay.” left out, “Sigma-Aldrich). […]” for “Sigma-Aldrich).”

[4] = test system: Caco-2 cells; assay: L-Methionine uptake by Caco-2 cells exposed to DON; format: cell-based; conditions: for % of inhibition by DON, Passive uptake (−Na) / % of inhibition by DON, Total uptake (+Na) / % of inhibition by DON, Active transport: L-Methionine, DON 10 μM alone; for % of inhibition by DON, Active transport: total minus passive
Text: as §1, §2, §3, §4, §5

[5] = test system: Caco-2 cells; assay: L-Threonine uptake by Caco-2 cells exposed to DON; format: cell-based; conditions: DON 10 μM alone; for % of inhibition by DON, Active transport: total minus passive
Text: as §1, §2, §3, §4, §5

[6] = test system: Caco-2 cells; assay: L-Lysine uptake by Caco-2 cells exposed to DON; format: cell-based; conditions: for % of inhibition by DON, Passive uptake (−Na) / % of inhibition by DON, Total uptake (+Na) / % of inhibition by DON, Active transport: L-Lysine, DON 10 μM alone; for % of inhibition by DON, Active transport: total minus passive
Text: as §1, §2, §3, §4, §5

[7] = test system: Caco-2 cells; assay: TER of Caco-2 cells exposed to DON; format: cell-based
Procedure: Caco-2 cells were used as a model of intestinal epithelial cells. Cells were routinely grown in culture media (DMEM) supplemented with 10% fetal calf serum and 1% antibiotics (streptomycin penicillin solution). Cells were grown in 75 cm^2 ventilated flasks maintained at 37° C. in a 5% CO2 incubator. Cells were routinely passaged using trypsin-EDTA solution. For the assay, cells were seeded onto 12-well inserts (Thincert, Greiner, pore size 0.4 μm) at an initial density of 200,000 cells/cm^2 and let to differentiate for 10-14 days post-seeding before being used, with medium changes every two days. Cell differentiation was confirmed by reading the TER, using a Volt/Ohm meter (Millipore), at the beginning of the experiment, when the TER value reached 600 Ohm/cm^2. […]
After differentiation, Caco-2 cells were put in contact, during 48 or 72 h, with or without DON at different concentrations (0, 6.25, 12.5, 25, 50 or 100 μM), and with activated charcoal at 1% (w/v) as positive control, or with or without one of the microalgae preparation type at different concentrations (1, 5, or 20% v:v, final dilution), each added on the apical side. At the end of the incubation time, the TER was measured using a Volt/Ohm meter (Millipore), and results were expressed in percentages of the control put in contact with the same concentration of DON but not with the tested product (microalgae or charcoal). […]

[8] = test system: Ross 308 broilers; assay: Colon length and colon mucosa aspect in DSS-treated broiler chickens; format: in vivo; conditions: DSS in drinking water, control diet
Text: (§6) Material and Methods: • Experimental animals: Day-of-hatch male Ross 308 broilers were obtained from a local hatchery, placed in floor pens until 6 days of age, and provided heat to maintain an age-appropriate temperature. Chicks were provided ad libitum access to water and the balanced experimental diets meeting the poultry nutrition requirements recommended for Ross 308 broilers during the starter period from 1 to 16 days of age. • Experimental diets: A basal starter diet (CON) in the form of short pellets was formulated based on wheat, corn, and soybean meal (Table 14). The other experimental diets were formulated to contain 5% microalgae Aurantiochytrium mangrovei (MAG-5) or 2% curcumin (CUM-2) by replacing part of the cereal, protein or oil content. […]
(§7) • Dextran Sulfate Sodium (DSS) administration: DSS was used to increase intestinal permeability in broilers, by inducing epithelium damage. […] Fluorescence levels of diluted plasma (1:4 in saline solution 0.9% NaCl) were measured at an excitation wavelength of 485 nm and emission wavelength of 528 nm (BIOTEK synergie H1), and FITC-dextran concentration per mL of plasma was calculated based on a standard curve. • At the time of euthanisa, the colon was collected for morphometry. […] The colon (from the ileocecal junction to the cloaca) was then excised and its length was measured.

[9] = test system: Ross 308 broilers; assay: Gut permeability: FITC-dextran in plasma of DSS-treated broiler chickens; format: in vivo; conditions: DSS administration, control diet; blood 1 h after oral gavage
Text: as §6, §7

Compound: CC1=C[C@H]2O[C@@H]3[C@H](O)C[C@](C)([C@@]2(CO)[C@H](O)C1=O)[C@]31CO1 [DON, Deoxynivalenol]
- % of inhibition by DON, Passive uptake (−Na) ([1]; 12 h): 6.4%
- % of inhibition by DON, Total uptake (+Na) ([1]; 12 h): 9.3%
- % of inhibition by DON, Passive uptake (−Na) ([1]; 24 h): 22.2%
- % of inhibition by DON, Total uptake (+Na) ([1]; 24 h): 29.4%
- % of inhibition by DON, Passive uptake (−Na) ([1]; 48 h): 21.6%
- % of inhibition by DON, Total uptake (+Na) ([1]; 48 h): 28.8%
- % of inhibition by DON, SGLT-1 mediated ([2]; 12 h): 19.2%
- % of inhibition by DON, SGLT-1 mediated ([2]; 24 h): 52.3%
- % of inhibition by DON, SGLT-1 mediated ([2]; 48 h): 51.4%
- effect of DON on intestinal nutrient uptake [3]: alters intestinal nutrient uptake
- effect of DON on L-Met active uptake ([4]; 12 h incubation): stimulated
- effect of DON on active L-Met uptake ([4]; 48 h incubation, DON alone): stimulated
- % of inhibition by DON, Passive uptake (−Na) ([4]; 12 h): −2.2%
- % of inhibition by DON, Total uptake (+Na) ([4]; 12 h): −9.6%
- % of inhibition by DON, Active transport ([4]; 12 h): −256.0%
- % of inhibition by DON, Passive uptake (−Na) ([4]; 24 h): −4.9%
- % of inhibition by DON, Total uptake (+Na) ([4]; 24 h): −12.9%
- % of inhibition by DON, Passive uptake (−Na) ([4]; 48 h): 1.8%
- % of inhibition by DON, Total uptake (+Na) ([4]; 48 h): −4.1%
- % of inhibition by DON, Active transport ([4]; 48 h): −102.4%
- % of inhibition by DON, Passive uptake (−Na) ([5]; 12 h): −9.5%
- % of inhibition by DON, Total uptake (+Na) ([5]; 12 h): −6.3%
- % of inhibition by DON, Active transport ([5]; 12 h): 56.5%
- % of inhibition by DON, Passive uptake (−Na) ([5]; 24 h): −9.5%
- % of inhibition by DON, Total uptake (+Na) ([5]; 24 h): −6.3%
- % of inhibition by DON, Active transport ([5]; 24 h): 56.5%
- % of inhibition by DON, Passive uptake (−Na) ([5]; 48 h): −16.9%
- % of inhibition by DON, Total uptake (+Na) ([5]; 48 h): −14.5%
- % of inhibition by DON, Active transport ([5]; 48 h): 76.4%
- effect of DON on active L-Lys uptake ([6]; 48 h incubation, DON alone): stimulated
- % of inhibition by DON, Passive uptake (−Na) ([6]; 12 h): −6.1%
- % of inhibition by DON, Total uptake (+Na) ([6]; 12 h): −5.2%
- % of inhibition by DON, Active transport ([6]; 12 h): 57.5%
- % of inhibition by DON, Passive uptake (−Na) ([6]; 24 h): −10.1%
- % of inhibition by DON, Total uptake (+Na) ([6]; 24 h): −5.2%
- % of inhibition by DON, Active transport ([6]; 24 h): 44.2%
- % of inhibition by DON, Passive uptake (−Na) ([6]; 48 h): −6.6%
- % of inhibition by DON, Total uptake (+Na) ([6]; 48 h): −9.4%
- % of inhibition by DON, Active transport ([6]; 48 h): −102.3%
- effect of DON only on the TER ([7]; DON 6.25-100 μM, more pronounced as concentration increased): induced a reduction of the TER
- IC50 ([7]; IC50 of DON on TER, control without tested product, 48 h): 11 µM

Compound: Dextran Sulfate Sodium [DSS]
- length of the colon ([8]; 16-day old chickens, compared with group without DSS): significantly increased
- visual observation of the colon mucosa ([8]; compared with DSS- control group): thinner, translucent, and more fragile
- flow of FITC-dextran through the gut barrier [9]: significantly increased
